Laboratory results reported in patent publication US20240252652A1, “PROTEINS HAVING UNNATURAL AMINO ACIDS AND METHODS OF USE” (The Regents of the University of California, priority 2021, published 2024).
Values belong to the molecule of their own block, whether it stands above or below them.

Tests used:
[1] = Cross-linking of azido-GD3 by SFY incorporated Siglec-7v in vitro (Western blot); type: biochemical; conditions: 60 μM Siglec-7v(127SFY), 2 mM azido-GD3
Procedure: FIGS. 17A-17D provide a comparative study between NHSF pretreated Siglec-7v (Siglec-7v-SF) and Siglec-7v(127SFY). […] Siglec-7v(127SFY) or Siglec-7v-SF was incubated with azido-GD3 or azido-lac followed with Western blot detection. The azido group was click reacted with alkyne-biotin for Western blot detection of GD3/lac. […] Cells were treated with protein, washed, stained with a fluorescently labeled antibody specific for the His×6 tag appended at the C-terminus of Siglec-7v, and quantified with flow cytometry. […] Pre-stained BT-20 cells were incubated with 12 μM Siglec-7v-SF or Siglec-7v(127SFY) for 2 h. Cells were then washed and incubated with NK-92 cells for 4 h. Cells were stained with propidium iodide and NK cytotoxicity was evaluated by flow cytometry. Control group: no protein treatment. The line and error bar represent mean±SEM; n=3 independent batches of Siglec-7v proteins. *** p<0.001; NS, not significant, multiple t test.
We then determined if SFY could enable Siglec-7v to cross-link the bound glycan ligand. Inspired by NHSF-mediated cross-linking of azido-GD3 through Lys on Siglec-7v protein, we incorporated SFY into individual Lys sites of Siglec-7v, including sites 20, 24, 75, 104, 127, 131, and 135. […] Cross-linking of azido-GD3 was detected for Siglec-7v(104SFY) and Siglec-7v(127SFY). […]

Siglec-7v with azido-GD3 = target: T1, Siglec-7v with azido-GD3 (Homo sapiens, UniProt Q9Y286, C41S); assay: Small molecule mediated Siglec-7v cross-linking in vitro (Western blot); type: biochemical; conditions: for cross-linking of Siglec-7v with azido-GD3 (biotin band slightly above Siglec-7v): 60 μM Siglec-7v, 2 mM azido-GD3, 0.3 mM cross-linker, room temperature, UV for NHQM, HoQM
T1 construct: made in house; host or cells: E. coli BL21(DE3)
Procedure: We then investigated if the various function groups synthesized onto the cross-linkers (FIG. 1B) could achieve protein-glycan cross-linking using Siglec-7v and azido-GD3 as the model system. Siglec-7v (60 μM) was incubated with 2 mM azido-GD3 for 1 h at room temperature, followed by the addition of different cross-linkers to the solution. For samples treated with cross-linker NHQM or HoQM, UV light was applied to activate the cross-linker. Alkyne-biotin was subsequently clicked with azido-GD3 in the samples, and the biotin signal was detected with Western blot using streptavidin-HRP (FIG. 1E). […] (Ref. 20). The results here indicate that NHSF can be applied to cross-link protein-glycan interactions via the sulfonyl fluoride group.
To test if small molecule cross-linker could cross-link Siglec-7v with azido-GD3 and azido-lac, 60 μM Siglec-7v was incubated with 2 mM azido-GD3 or azido-lac in PBS buffer, pH 7.4 at room temperature for 1 hr. The solution was treated with or without 0.3 mM NHSF or NHBr or NHFS or NHQM or HoQM at room temperature for 1 hr, respectively. The NHQM or HoQM was then illuminated with or without UV for 15 mins at wavelength 365 nm. After that, 200 μM alkyne-biotin, 0.05 mM CuSO4, 1 mM THPTA and 1 mM sodium ascorbate were added and the reaction mixture was incubated at room temperature in dark environment for 0.5 hours. Samples were then boiled at 95° C. for 5 mins and run Western blot against 6× His tag antibody or streptavidin-horseradish peroxidase (HRP).

T1 sequence (Q9Y286 with tags, fused parts or gaps C41S): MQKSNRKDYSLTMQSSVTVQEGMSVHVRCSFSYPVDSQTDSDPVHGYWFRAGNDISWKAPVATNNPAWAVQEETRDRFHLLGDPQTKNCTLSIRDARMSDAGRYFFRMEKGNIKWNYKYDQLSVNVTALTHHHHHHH

Structure (SMILES): CC(=O)N[C@H]1[C@H]([C@H](O)[C@H](O)CO)O[C@@](O[C@H]2[C@@H](O)[C@@H](CO)O[C@@H](O[C@H]3[C@H](O)[C@@H](O)C(O)O[C@@H]3CO)[C@@H]2O)(C(=O)O)C[C@@H]1O (stereo partly shown) [3′-sialyllactose]
effect of added ligand on crosslinking of siglec-7v(127SFY) with azido-GD3 [1]: did not reduce

Structure (SMILES): O=C(c1ccc(OCc2ccccc2[N+](=O)[O-])c(C(F)F)c1)N1CCN(C(=O)c2ccc(OCc3ccccc3[N+](=O)[O-])c(C(F)F)c2)CC1 [HoQM]
cross-linking of Siglec-7v with azido-GD3 (biotin band slightly above Siglec-7v) (Siglec-7v with azido-GD3): not

Structure (SMILES): O=C(Cc1ccc(OS(=O)(=O)F)cc1)ON1C(=O)CCC1=O [NHFS, 2,5-dioxopyrrolidin-1-yl 2-(4-((fluorosulfonyl)oxy)-phenyl)acetate]
cross-linking of Siglec-7v with azido-GD3 (biotin band slightly above Siglec-7v) (Siglec-7v with azido-GD3): not

cross-linking of Siglec-7v with azido-GD3 (biotin band slightly above Siglec-7v) (Siglec-7v with azido-GD3): not
Structure (SMILES): O=C(ON1C(=O)CCC1=O)c1ccc(OCc2ccccc2[N+](=O)[O-])c(C(F)F)c1 [NHQM]

Structure (SMILES): O=C(CCNC(=O)c1ccc(S(=O)(=O)F)cc1)ON1C(=O)CC(S(=O)(=O)[O-])C1=O.[Na+] (stereo not shown) [NHSF—C2, Sodium 1-((3-(4-(fluorosulfonyl)benzamido)propanoyl)oxy)-2,5-dioxopyrrolidine-3-sulfonate]
cross-linking band intensity in comparison with NHSF (Siglec-7v with azido-GD3; Siglec-7v with azido-GD3): 1.5 fold

Structure (SMILES): O=C(CCCNC(=O)c1ccc(S(=O)(=O)F)cc1)ON1C(=O)CC(S(=O)(=O)[O-])C1=O.[Na+] (stereo not shown) [NHSF—C3, Sodium 1-((4-(4-(fluorosulfonyl)benzamido)butanoyl)oxy)-2,5-dioxopyrrolidine-3-sulfonate]
cross-linking efficiency on further increase of the linker length (Siglec-7v with azido-GD3; Siglec-7v with azido-GD3): lowered

Structure (SMILES): O=C(CCCCCCCNC(=O)c1ccc(S(=O)(=O)F)cc1)ON1C(=O)CC(S(=O)(=O)[O-])C1=O.[Na+] (stereo not shown) [NHSF—C7, sodium 1-((8-(4-(fluorosulfonyl)benzamido)octanoyl)oxy)-2,5-dioxopyrrolidine-3-sulfonate]
cross-linking efficiency on further increase of the linker length (Siglec-7v with azido-GD3; Siglec-7v with azido-GD3): lowered
